{"source": "ChEMBL document CHEMBL1201862", "about": "“PubChem BioAssay data set” (2004)", "key": {"[1]": {"target": "Dual specificity protein kinase CLK1 (Homo sapiens, UniProt P49759)", "sequence (P49759 whole entry)": "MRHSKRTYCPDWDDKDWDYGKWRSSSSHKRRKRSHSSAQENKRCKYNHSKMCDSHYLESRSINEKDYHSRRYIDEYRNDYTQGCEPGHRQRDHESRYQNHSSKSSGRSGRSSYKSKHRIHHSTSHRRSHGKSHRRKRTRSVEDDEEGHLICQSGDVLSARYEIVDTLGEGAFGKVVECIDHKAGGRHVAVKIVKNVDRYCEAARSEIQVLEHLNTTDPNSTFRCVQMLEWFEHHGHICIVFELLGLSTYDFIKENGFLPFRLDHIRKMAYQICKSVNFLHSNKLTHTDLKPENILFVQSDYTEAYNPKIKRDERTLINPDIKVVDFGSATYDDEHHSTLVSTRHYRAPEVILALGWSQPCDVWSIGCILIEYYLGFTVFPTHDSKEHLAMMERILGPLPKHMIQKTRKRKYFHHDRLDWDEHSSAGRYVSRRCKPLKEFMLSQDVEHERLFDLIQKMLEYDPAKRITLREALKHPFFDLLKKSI", "assay": "CLK1 kinase inhibitors, off-target check, dose response, selectivity assay for Dyrk1A inhibitor project, biochemical, cherry-picked samples (AID 588811)"}, "[2]": {"target": "Serine/threonine-protein phosphatase (Candida dubliniensis (strain CD36 / CBS 7987 / NCPF 3949 / NRRLY-17841) (Yeast), UniProt B9W6M3)", "sequence (B9W6M3 whole entry)": "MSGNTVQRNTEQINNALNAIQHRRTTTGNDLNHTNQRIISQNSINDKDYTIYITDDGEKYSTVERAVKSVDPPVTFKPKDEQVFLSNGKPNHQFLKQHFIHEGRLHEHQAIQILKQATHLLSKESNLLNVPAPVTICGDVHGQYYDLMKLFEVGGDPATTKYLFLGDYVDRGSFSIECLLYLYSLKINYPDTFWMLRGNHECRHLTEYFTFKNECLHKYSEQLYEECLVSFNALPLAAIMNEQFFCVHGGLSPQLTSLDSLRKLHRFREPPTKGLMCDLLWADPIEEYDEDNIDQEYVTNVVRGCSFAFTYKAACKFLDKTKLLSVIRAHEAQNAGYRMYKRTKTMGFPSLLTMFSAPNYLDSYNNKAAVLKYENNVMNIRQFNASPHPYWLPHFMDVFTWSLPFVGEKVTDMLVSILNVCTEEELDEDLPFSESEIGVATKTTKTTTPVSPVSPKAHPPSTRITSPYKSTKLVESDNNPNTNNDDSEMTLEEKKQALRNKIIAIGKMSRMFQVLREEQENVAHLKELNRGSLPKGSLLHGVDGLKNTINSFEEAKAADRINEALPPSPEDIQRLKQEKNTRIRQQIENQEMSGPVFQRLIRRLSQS", "assay": "calcineurin pathway inhibitors in yeast reporter, dose response, S. cerevisiae, CDRE-lacZ, luminescence, secondary (AID 2388);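 also: yeast reporter cells carrying a calcineurin-responsive lacZ construct stimulated with calcium chloride; luminescent beta-galactosidase reporter signal in whole cells rather than isolated phosphatase activity; potency for inhibition where a drop in reporter signal means calcineurin blockade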", "assay_type": "functional, cell-based"}, "Streptokinase A": {"target": "T1, Streptokinase A (Streptococcus pyogenes serotype M1, UniProt P10520)", "T1 sequence (P10520 whole entry)": "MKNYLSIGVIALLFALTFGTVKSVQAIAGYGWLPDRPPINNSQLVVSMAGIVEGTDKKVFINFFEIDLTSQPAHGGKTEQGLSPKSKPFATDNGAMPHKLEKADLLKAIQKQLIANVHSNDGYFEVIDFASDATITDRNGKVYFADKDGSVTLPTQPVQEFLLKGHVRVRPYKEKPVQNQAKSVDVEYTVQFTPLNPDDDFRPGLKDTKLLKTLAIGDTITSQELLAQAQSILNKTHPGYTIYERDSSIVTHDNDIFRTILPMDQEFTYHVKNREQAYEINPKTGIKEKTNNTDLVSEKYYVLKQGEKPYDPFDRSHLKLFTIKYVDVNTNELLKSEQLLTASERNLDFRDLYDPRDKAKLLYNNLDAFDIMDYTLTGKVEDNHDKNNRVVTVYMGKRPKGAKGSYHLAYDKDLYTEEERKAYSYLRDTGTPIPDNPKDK", "assay": "S. pyogenes streptokinase expression inhibitors, potency, dose response, plasminogen activation absorbance, OD405 (AID 1914);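 also: secreted streptokinase activity via plasminogen activation per viability signal from cell pellet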", "assay_type": "functional, Streptococcus pyogenes M1 GAS"}, "[3]": {"target": "ATP-dependent molecular chaperone HSP82 (Candida albicans (strain WO-1) (Yeast), UniProt C4YTQ8)", "sequence (C4YTQ8 whole entry)": "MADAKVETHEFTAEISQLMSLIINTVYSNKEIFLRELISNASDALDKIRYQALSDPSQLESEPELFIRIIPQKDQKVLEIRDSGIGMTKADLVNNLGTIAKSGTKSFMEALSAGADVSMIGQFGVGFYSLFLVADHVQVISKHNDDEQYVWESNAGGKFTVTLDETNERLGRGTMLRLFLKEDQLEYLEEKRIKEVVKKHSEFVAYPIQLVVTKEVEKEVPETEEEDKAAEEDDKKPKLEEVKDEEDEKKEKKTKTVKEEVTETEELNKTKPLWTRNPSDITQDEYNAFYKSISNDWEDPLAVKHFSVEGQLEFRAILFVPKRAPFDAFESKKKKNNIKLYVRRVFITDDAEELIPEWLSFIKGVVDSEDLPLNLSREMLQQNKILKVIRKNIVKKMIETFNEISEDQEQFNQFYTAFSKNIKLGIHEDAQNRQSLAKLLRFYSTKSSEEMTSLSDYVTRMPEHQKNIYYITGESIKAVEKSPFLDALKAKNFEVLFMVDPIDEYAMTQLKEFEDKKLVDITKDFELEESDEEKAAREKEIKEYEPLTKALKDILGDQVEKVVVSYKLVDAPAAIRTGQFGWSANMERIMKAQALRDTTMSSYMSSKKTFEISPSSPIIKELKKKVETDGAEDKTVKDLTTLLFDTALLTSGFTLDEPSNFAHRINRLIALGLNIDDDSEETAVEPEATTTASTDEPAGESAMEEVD", "assay": "loss of DOC-induced GRE-beta-galactosidase reporter signal, dose response, Hsp90 inhibitor project, S. cerevisiae, luminescence (AID 2400);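 also: beta-galactosidase luminescence from glucocorticoid response element reporter as proxy for Hsp90 function; inhibitor potency where signal loss means Hsp90 inhibition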", "assay_type": "functional, cell-based"}, "[4]": {"assay": "nonselective inhibitors of cellular cAMP signaling, dose response, counter-screen for MC4R biased antagonist project, cell-based, TR-FRET cAMP detection (AID 602305);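 also: U2OS cells stimulated with forskolin near its EC80 as the cAMP inducer; potency is for inhibition of forskolin-stimulated cAMP signaling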", "assay_type": "functional"}, "Melanocortin receptor 4": {"target": "Melanocortin receptor 4 (Homo sapiens, UniProt P32245)", "sequence (P32245 whole entry)": "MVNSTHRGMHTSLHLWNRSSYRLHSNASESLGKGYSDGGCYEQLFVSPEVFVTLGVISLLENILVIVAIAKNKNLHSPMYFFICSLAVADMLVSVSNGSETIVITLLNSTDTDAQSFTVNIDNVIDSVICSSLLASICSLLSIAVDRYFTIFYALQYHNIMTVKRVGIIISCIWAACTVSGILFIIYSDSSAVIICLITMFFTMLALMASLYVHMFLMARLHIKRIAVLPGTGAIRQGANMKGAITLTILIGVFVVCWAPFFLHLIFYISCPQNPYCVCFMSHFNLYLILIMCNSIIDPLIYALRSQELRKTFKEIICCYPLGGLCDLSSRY", "assay": "MC4R antagonist potency on cAMP, dose response, cell-based, TR-FRET, biased antagonists (AID 602298);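 also: antagonist potency against agonist-stimulated cAMP production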", "assay_type": "functional"}, "Steroidogenic factor 1": {"target": "Steroidogenic factor 1 (Homo sapiens, UniProt Q13285)", "sequence (Q13285 whole entry)": "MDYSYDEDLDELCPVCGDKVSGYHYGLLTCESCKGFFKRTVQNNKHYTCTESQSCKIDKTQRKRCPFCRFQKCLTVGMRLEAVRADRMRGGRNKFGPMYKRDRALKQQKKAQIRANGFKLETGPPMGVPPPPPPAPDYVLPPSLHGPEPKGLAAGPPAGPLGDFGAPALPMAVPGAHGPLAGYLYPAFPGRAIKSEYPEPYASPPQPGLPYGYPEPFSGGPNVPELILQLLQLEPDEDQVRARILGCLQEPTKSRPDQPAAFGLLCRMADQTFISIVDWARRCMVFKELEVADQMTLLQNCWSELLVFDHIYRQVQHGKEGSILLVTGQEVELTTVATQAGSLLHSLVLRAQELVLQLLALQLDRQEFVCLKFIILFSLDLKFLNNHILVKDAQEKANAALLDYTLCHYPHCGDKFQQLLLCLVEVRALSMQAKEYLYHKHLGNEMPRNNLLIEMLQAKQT", "assay": "Counterscreen for inverse agonists of the liver receptor homolog-1 (LRH-1; NR5A2): Luminescence-based cell-based high throughput dose response assay to identify inverse agonists of the Steroidogenic Factor 1 Nuclear Receptor (SF1; NR5A1).", "assay_type": "functional"}, "[5]": {"assay": "StAR promoter reporter inhibition counter-screen, dose response, counter-screen for LRH-1 inverse agonist project, cell-based, luminescence, luciferase reporter (AID 651969)", "assay_type": "functional"}, "[6]": {"target": "Nuclear receptor subfamily 5 group A member 2 (Homo sapiens, UniProt O00482)", "sequence (O00482 whole entry)": "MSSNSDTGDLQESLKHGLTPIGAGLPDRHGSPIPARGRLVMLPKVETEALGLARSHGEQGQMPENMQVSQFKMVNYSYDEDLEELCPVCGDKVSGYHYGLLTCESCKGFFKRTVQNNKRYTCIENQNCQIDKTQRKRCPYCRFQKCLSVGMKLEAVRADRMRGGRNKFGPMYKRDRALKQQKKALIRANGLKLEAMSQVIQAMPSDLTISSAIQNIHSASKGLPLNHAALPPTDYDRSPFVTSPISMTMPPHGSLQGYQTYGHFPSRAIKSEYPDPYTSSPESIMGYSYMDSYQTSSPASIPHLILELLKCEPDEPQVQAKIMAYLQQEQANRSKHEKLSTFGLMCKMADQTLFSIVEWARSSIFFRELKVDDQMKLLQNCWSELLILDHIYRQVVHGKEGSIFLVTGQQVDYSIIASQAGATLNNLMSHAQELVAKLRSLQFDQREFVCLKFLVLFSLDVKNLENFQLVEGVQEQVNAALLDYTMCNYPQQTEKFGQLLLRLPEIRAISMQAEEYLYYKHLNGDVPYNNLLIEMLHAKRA", "assay_type": "functional, cell-based"}, "H9c2": {"tested_on": "H9c2", "assay": "cells", "assay_type": "functional, cell-based", "conditions": "Rattus norvegicus, H9c2, Myocardium"}, "[7]": {"assay": "AlphaScreen signal interference compounds, dose response, artefact control for ARNT-TACC3 interaction inhibitor project, biochemical, luminescence, cherry-pick (AID 651705);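 also: AlphaScreen bead proximity signal that flags compounds interfering with the detection technology; potency reflects signal decrease which marks the compound as an assay artifact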", "assay_type": "functional"}, "[8]": {"target": "T2, Sentrin-specific protease 8 (Homo sapiens, UniProt Q96LD8)", "T2 sequence (Q96LD8 whole entry)": "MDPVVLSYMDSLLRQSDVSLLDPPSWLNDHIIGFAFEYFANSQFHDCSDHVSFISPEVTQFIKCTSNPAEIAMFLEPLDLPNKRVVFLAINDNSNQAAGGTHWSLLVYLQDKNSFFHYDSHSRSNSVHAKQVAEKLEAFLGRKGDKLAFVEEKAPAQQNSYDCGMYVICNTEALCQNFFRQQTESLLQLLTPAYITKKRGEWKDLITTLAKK", "assay_type": "functional"}, "[9]": {"target": "T3, Mitochondrial peptide methionine sulfoxide reductase (Bos taurus, UniProt P54149)", "T3 sequence (P54149 whole entry)": "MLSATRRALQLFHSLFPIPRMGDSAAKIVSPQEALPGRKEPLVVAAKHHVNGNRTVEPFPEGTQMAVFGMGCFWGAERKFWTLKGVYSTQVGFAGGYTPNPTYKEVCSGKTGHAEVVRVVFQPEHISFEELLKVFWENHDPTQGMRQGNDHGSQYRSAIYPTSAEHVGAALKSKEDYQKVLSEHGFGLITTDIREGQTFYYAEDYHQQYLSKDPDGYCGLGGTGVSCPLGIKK", "assay_type": "functional"}, "[10]": {"target": "T2, Sentrin-specific protease 8", "assay_type": "functional", "remark": "listed apart in the source"}, "[11]": {"target": "T3, Mitochondrial peptide methionine sulfoxide reductase", "assay": "Absorbance-based biochemical high throughput dose response assay for activators of Methionine sulfoxide reductase A (MsrA).", "assay_type": "functional"}, "[12]": {"target": "Histone-lysine N-methyltransferase NSD2 (Homo sapiens, UniProt O96028)", "sequence (O96028 whole entry)": "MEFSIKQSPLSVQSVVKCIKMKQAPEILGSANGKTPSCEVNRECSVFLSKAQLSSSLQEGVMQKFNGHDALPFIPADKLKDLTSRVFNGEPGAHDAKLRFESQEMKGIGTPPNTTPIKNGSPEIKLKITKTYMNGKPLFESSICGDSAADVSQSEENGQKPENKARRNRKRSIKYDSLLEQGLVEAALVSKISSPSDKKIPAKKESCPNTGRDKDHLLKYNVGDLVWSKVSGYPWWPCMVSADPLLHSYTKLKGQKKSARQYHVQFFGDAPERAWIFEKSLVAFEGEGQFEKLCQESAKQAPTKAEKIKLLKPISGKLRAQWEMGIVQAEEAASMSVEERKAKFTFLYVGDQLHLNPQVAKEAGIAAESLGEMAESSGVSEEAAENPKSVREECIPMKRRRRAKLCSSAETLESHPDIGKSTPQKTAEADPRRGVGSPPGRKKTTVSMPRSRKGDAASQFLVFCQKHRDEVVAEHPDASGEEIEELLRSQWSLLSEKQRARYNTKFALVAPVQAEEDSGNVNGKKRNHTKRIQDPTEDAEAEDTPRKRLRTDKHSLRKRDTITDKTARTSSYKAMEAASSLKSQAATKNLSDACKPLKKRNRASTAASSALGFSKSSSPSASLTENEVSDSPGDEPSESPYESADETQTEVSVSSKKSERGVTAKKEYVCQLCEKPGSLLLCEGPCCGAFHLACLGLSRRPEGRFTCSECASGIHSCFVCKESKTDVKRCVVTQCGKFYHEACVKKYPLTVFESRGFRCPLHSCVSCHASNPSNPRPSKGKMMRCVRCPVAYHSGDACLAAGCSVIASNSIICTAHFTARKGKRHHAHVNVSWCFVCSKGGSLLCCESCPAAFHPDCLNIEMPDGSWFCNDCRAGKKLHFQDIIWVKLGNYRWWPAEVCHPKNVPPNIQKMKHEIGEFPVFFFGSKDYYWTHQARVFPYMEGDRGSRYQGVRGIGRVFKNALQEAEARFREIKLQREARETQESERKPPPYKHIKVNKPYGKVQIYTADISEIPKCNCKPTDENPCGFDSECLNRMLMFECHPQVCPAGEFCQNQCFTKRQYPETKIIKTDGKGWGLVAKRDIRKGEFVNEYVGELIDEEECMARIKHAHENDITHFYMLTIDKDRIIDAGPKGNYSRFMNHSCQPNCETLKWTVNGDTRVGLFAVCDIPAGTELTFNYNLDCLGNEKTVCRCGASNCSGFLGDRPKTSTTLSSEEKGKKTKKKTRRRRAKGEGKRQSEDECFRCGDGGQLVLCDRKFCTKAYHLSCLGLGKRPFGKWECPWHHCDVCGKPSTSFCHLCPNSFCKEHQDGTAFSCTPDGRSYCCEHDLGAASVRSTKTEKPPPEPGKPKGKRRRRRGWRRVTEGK", "assay_type": "biochemical"}, "[13]": {"assay": "Luminescence Cell-Based Dose Response to Identify Activators of 5'UTR Stem-Loop Driven Prion Protein mRNA Translation in H4-C Neuroglioblastoma Cells. [Related pubchem assays: 1829 (Project Summary), 1814 (Primary HTS)]", "assay_type": "functional"}, "[14]": {"assay": "C. albicans growth with fluconazole, confirmation, fluorescence, retest (AID 2467)", "assay_type": "functional, cell-based"}, "[15]": {"assay": "Luminescence Cell-Based Dose Confirmation to Identify Activators of 5'UTR Stem-Loop Driven Alpha-Synuclein mRNA Translation in H4 Neuroglioblastoma Cells. [Related pubchem assays: 1829 (Project Summary), 1814 (Primary HTS)]", "assay_type": "functional"}, "[16]": {"assay": "Luminescence Cell-Based Dose Response to Identify Activators of Luciferase Translation or Activity in H4-C Neuroglioblastoma Cells. [Related pubchem assays: 1829 (Project Summary), 1814 (Primary HTS)]", "assay_type": "functional"}, "H4": {"tested_on": "H4", "assay": "Luminescence Cell-Based Dose Response HTS to Identify Activators of 5'UTR Stem-Loop Driven Prion Protein mRNA Translation in H4 Neuroglioblastoma Cells. [Related pubchem assays: 1829 (Project Summary), 1814 (Primary HTS)]", "assay_type": "functional", "conditions": "Homo sapiens"}, "[17]": {"assay": "Luminescence Cell-Based Dose Confirmation HTS to Identify Activators of 5'UTR Stem-Loop Driven Alpha-Synuclein mRNA Translation in H4 Neuroglioblastoma Cells. [Related pubchem assays: 1829 (Project Summary), 1814 (Primary HTS)]", "assay_type": "functional"}, "[18]": {"assay": "Luminescence Cell-Based Dose Response HTS to Identify Activators of Luciferase Translation or Activity in H4 […] Cells. [Related pubchem assays: 1829 (Project Summary), 1814 (Primary HTS)]", "assay_type": "functional"}, "[19]": {"assay": "NIH-3T3 fibroblast cytotoxicity, dose response, cytotoxicity control, cell-based, fluorescence, Alamar Blue, secondary assay (AID 2327);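 also: NIH-3T3 mouse fibroblasts cultured with fluconazole at 8 µg/mL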", "assay_type": "functional"}}, "note": "Active and inactive are the calls of the source."}
{"smiles": "c1cncc(-c2nc(NCc3ccco3)c3ccccc3n2)c1", "values": [{"measurement": "AC50", "setting": "[1]", "result": "17.9 µM (active)"}]}
{"smiles": "O=C(c1cc(-c2ccccc2)n[nH]1)N1CCc2c([nH]c3ccccc23)C1c1ccccn1", "note": "(stereo unspecified)", "values": [{"measurement": "EC50", "setting": "[2]", "result": "> 180 µM (inactive)"}, {"measurement": "EC50", "setting": "Streptokinase A", "result": "26.3 µM (active)"}, {"measurement": "EC50", "setting": "[3]", "result": "31.2 µM (active)"}]}
{"smiles": "COC(=O)CSc1nnc(-c2ccc(S(=O)(=O)N3CCCCC3)cc2)o1", "values": [{"measurement": "IC50", "setting": "[4]", "result": "> 64.6 µM (inactive)"}, {"measurement": "IC50", "setting": "Melanocortin receptor 4", "result": "> 64.6 µM (inactive)"}]}
{"smiles": "Cc1no[n+]([O-])c1COc1ccc(/C=C2\\NC(=S)NC2=O)cc1", "values": [{"measurement": "IC50", "setting": "Steroidogenic factor 1", "result": "1.34 µM (active)"}, {"measurement": "IC50", "setting": "[5]", "result": "35.9 µM (inactive)"}, {"measurement": "IC50", "setting": "[6]", "result": "0.578 µM (active)"}]}
{"smiles": "CCCn1nc(C(=O)Nc2nc(-c3ccccn3)cs2)c2ccccc2c1=O", "values": [{"measurement": "IC50", "setting": "H9c2", "result": "> 79 µM (inactive)"}, {"measurement": "AC50", "setting": "[7]", "result": "81.7 µM (active)"}]}
{"smiles": "O=[N+]([O-])c1ccc(-[n+]2nc(-c3ccccc3)nn2-c2ccccc2)cc1", "values": [{"measurement": "IC50", "setting": "[8]", "result": "23.7 µM (active)"}, {"measurement": "IC50", "setting": "[9]", "result": "35.9 µM (inactive)"}, {"measurement": "IC50", "setting": "[10]", "result": "5.48 µM (active)"}, {"measurement": "EC50", "setting": "[11]", "result": "> 104 µM (inactive)"}, {"measurement": "AC50", "setting": "[12]", "result": "0.654 µM (active)"}]}
{"smiles": "Clc1ccc(CONc2ncnc3nonc23)c(Cl)c1", "values": [{"measurement": "EC50", "setting": "[13]", "result": "1.14 µM (active)"}, {"measurement": "EC50", "setting": "[2]", "result": "> 180 µM (inactive)"}, {"measurement": "EC50", "setting": "[14]", "result": "1.26 µM (active)"}, {"measurement": "EC50", "setting": "[3]", "result": "19.4 µM (active)"}, {"measurement": "EC50", "setting": "[15]", "result": "> 12 µM (not active)"}, {"measurement": "EC50", "setting": "[16]", "result": "0.516 µM (active)"}, {"measurement": "EC50", "setting": "H4", "result": "52.6 µM (active)"}, {"measurement": "EC50", "setting": "[17]", "result": "22.4 µM (active)"}, {"measurement": "EC50", "setting": "[18]", "result": "< 0.1 µM (inconclusive)"}, {"measurement": "EC50", "setting": "[19]", "result": "> 160 µM (inactive)"}]}
